Tests used:
Escherichia coli [1] = assay: Inhibition of Escherichia coli MurD assessed as residual activity at 500 uM
[2] = Inhibition of Escherichia coli MurD assessed as residual activity
Escherichia coli [3] = assay: Inhibition of Escherichia coli MurE assessed as residual activity at 250 uM
Escherichia coli [4] = assay: Inhibition of Escherichia coli MurF assessed as residual activity at 250 uM
Escherichia coli [5] = assay: Inhibition of Escherichia coli MurC assessed as residual activity at 250 uM
Escherichia coli [6] = assay: Inhibition of Escherichia coli MurD assessed as residual activity at 250 uM

| Activity (Escherichia coli [1]) [%] | Activity (Escherichia coli [6]) [%] | Structure (SMILES) | other results |
| --- | --- | --- | --- |
| 95 | – | Nc1nc(=O)c2nc(CNc3ccc(C(=O)N[C@@H](CCC(=O)O)C(=O)O)cc3)cnc2[nH]1 | – |
| 96 | – | COC(=O)CC[C@H](NC(=O)c1ccc(NCc2cnc3[nH]c(N)nc(=O)c3n2)cc1)C(=O)OC | – |
| 91 | – | COC(=O)CC[C@@H](NC(=O)c1ccc(CNc2ccc3[nH]c(=O)[nH]c(=O)c3c2)cc1)C(=O)OC | – |
| – | – | O=C(O)CC[C@H](NC(=O)c1ccc(CNc2cccc(/C=C3\SC(=S)NC3=O)c2)cc1)C(=O)O | IC50 [2]: 206 µM; Activity (Escherichia coli [3]): 91%; Activity (Escherichia coli [4]): 77%; Activity (Escherichia coli [5]): 76% |
| 92 | – | COC(=O)CC[C@H](NC(=O)c1ccc(CNc2ccc3[nH]c(=O)[nH]c(=O)c3c2)cc1)C(=O)OC | – |
| – | 85 | O=C(O)CC[C@@H](NC(=O)c1ccc(CNc2cccc(/C=C3\SC(=O)NC3=O)c2)cc1)C(=O)O | – |
| 81 | – | O=C(O)CC[C@H](NC(=O)c1ccc(CNc2ccc3[nH]c(=O)[nH]c(=O)c3c2)cc1)C(=O)O | – |
| – | – | O=C(O)CC[C@@H](NC(=O)c1ccc(CNc2cccc(/C=C3\SC(=S)NC3=O)c2)cc1)C(=O)O | IC50 [2]: 174 µM; Activity (Escherichia coli [3]): 96%; Activity (Escherichia coli [4]): 79%; Activity (Escherichia coli [5]): 78% |
| – | 70 | O=C(O)CC[C@@H](NC(=O)c1ccc(CNc2ccc(/C=C3\SC(=O)NC3=O)cc2)cc1)C(=O)O | – |
| 80 | – | Nc1nc(N)c2cc(NCc3ccc(C(=O)N[C@@H](CCC(=O)O)C(=O)O)cc3)ccc2n1 | – |
| – | 68 | O=C(O)CC[C@H](NC(=O)c1ccc(CNc2ccc(/C=C3\SC(=S)NC3=O)cc2)cc1)C(=O)O | – |
| – | 87 | O=C(O)CC[C@H](NC(=O)c1ccc(CNc2cccc(/C=C3\SC(=O)NC3=O)c2)cc1)C(=O)O | – |
| 77 | – | O=C(O)CC[C@@H](NC(=O)c1ccc(CNc2ccc3[nH]c(=O)[nH]c(=O)c3c2)cc1)C(=O)O | – |
| 81 | – | COC(=O)CC[C@H](NC(=O)c1ccc(CNc2ccc3nc(N)nc(N)c3c2)cc1)C(=O)OC | – |
| – | 74 | O=C(O)CC[C@@H](NC(=O)c1ccc(CNc2ccc(/C=C3\SC(=S)NC3=O)cc2)cc1)C(=O)O | – |
| 82 | – | Nc1nc(N)c2cc(NCc3ccc(C(=O)N[C@H](CCC(=O)O)C(=O)O)cc3)ccc2n1 | – |
| 87 | – | COC(=O)CC[C@@H](NC(=O)c1ccc(CNc2ccc3nc(N)nc(N)c3c2)cc1)C(=O)OC | – |
| – | 88 | O=C(O)CC[C@H](NC(=O)c1ccc(CNc2ccc(/C=C3\SC(=O)NC3=O)cc2)cc1)C(=O)O | – |

— ChEMBL document CHEMBL1139265, “Synthesis and biological evaluation of new glutamic acid-based inhibitors of MurD ligase” (Bioorg Med Chem Lett, 2009)
